The text below walks through data of EP0597029B1, “W/O MICROEMULSIONS” (SMITHKLINE BEECHAM CORPORATION, priority 1991, dated 1993).

The conditions of data set [1]: value in parentheses, from the CRC Handbook of Chemistry and Physics, 60th Edition; cited from earlier work.
The conditions of data set [2]: value in parentheses, from the CRC Handbook of Chemistry and Physics, 60th Edition; cited from earlier work. The source holds these as a separate data set.
Data set [3] is described as follows: Viscosity of microemulsions. Type of data set: physicochemical. Conditions: aqueous phase = water; oil plus low HLB surfactant (3:1, 87%), high HLB surfactant (10%), aqueous (3%). The text has this:
(§1) All the microemulsions had oil plus low HLB surfactant (3:1, 87%), high HLB surfactant (10%) and aqueous (3%).

Data set [4] in a line: Refractive index of microemulsions. It counts as physicochemical. The following applies: aqueous phase = water; oil plus low HLB surfactant (3:1, 87%), high HLB surfactant (10%), aqueous (3%).
Text: as §1

Where two headings read alike, the source gives them in different places.

As to `CCCCCCCC/C=C\CCCCCCCC(=O)O` [Oleic Acid], the Viscosity in data set [1] is reported as 25.6 centiPoise; in data set [3], 23.4 centiPoise. The Refractive index in data set [2] is 1.4583; in data set [4], 1.4582.
